For one assay, the target named is T1, human GCGR (Homo sapiens, UniProt P47871).
T1 construct: expressed in transfected cells; grown with Blasticidin and Hygromycin
As to the kind of experiment: cAMP activity assay, cells expressing human GCGR.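 On all read-outs here: cAMP production read by luminescence after one hour of peptide exposure at room temperature, EC50 from logistic curve fit, native glucagon and GLP-1 as control peptides.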 The format is cell-based. Conditions: for GCGR/GLP1R ratio: Table 5, ratio of hGCGR EC50 to hGLP1R EC50.

The target of the next assay is human GLP1R (Homo sapiens, UniProt P43220). As to the kind of experiment: cAMP activity assay, cells expressing human GLP1R. The class given is cell-based.
Chain of human GLP1R (P43220 24-463): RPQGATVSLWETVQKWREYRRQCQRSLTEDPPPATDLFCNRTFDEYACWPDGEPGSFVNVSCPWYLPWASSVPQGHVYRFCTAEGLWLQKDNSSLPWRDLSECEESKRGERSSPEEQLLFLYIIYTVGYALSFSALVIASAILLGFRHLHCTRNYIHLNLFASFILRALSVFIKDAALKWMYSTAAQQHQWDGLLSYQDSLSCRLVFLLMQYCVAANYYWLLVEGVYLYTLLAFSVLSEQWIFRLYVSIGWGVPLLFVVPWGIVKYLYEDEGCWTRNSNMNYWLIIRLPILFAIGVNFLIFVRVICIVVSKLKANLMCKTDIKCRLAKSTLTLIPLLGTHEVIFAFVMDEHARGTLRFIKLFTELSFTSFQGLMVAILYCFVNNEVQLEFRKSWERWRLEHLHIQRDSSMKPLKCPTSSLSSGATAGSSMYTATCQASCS
Where [1] appears, read: Table 5, incretin peptides, cAMP, read-out: hGCGR_EC50.
[2] abbreviates: Table 5, incretin peptides, cAMP, read-out: hGLP1R EC50.

Read-outs that look alike come from different tables or passages of the source. Non-standard residues stand in square brackets, D forms with d. Residues, ends and D or L forms follow the SMILES beside them. Lys(N3) = [N-]=[N+]=NCCCC[C@H](N)C(=O)O; Aib = CC(C)(N)C(=O)O

T1 sequence (P47871 26-477): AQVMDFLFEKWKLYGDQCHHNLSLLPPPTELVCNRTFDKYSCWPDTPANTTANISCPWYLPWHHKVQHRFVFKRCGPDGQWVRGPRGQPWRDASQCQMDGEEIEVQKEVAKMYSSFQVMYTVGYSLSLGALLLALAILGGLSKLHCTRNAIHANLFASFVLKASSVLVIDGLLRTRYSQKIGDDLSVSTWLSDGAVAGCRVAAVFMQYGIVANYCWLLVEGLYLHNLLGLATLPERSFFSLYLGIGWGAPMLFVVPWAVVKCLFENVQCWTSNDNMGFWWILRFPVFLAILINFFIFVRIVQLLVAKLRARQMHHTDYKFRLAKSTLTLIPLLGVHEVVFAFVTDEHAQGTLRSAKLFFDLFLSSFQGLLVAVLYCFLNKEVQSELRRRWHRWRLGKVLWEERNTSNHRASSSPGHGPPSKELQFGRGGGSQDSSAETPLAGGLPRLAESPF
Description for human GLP1R: Activity of the incretin peptides or the conjugates at the Glucagon receptor (GCGR) and GLP-1 receptor (GLP1R) may be measured in a cAMP activity assay as follows.
Peptides are dissolved in 100% DMSO and serially diluted to generate 10 point titrations. The peptide solutions are then transferred into 384-well assay plates (150 nL/well). Assay ready frozen cells expressing human GLP1R or human GCGR are suspended in growth media consisting of DMEM medium (GIBCO), 10% FBS (GIBCO), 1×NEAA(GIBCO), 1×P/S (GIBCO), 10 μg/mL Blasticidin (GIBCO) and 200 μg/mL Hygromycin (GIBCO). […] The cell suspensions (15 μL) are then added to the assay plates containing the peptide solutions (30,000 cells/well for human GCGR; 10,000 cells/well for human GLP1R). The cells are incubated for one hour at room temperature in the dark.
Production of cAMP may be determined using HitHunterr cAMPXS kits (DiscoverX) following the manufacturer's protocol. The plates are incubated for overnight at room temperature in the dark. Luminescence may be measured using an EnVision Multilabel plate reader (Perkin Elmer). Native GLP-1 and Glucagon (Bachem) may be used as control peptides. EC50 values may be calculated using uses a 4 parameter logistic fit based on the Levenberg-Marquardt algorithm.

Turning to `CCCCCCCCCCCCCCCC(=O)N[C@@H](CCC(=O)N[C@@H](CCC(=O)NCCCC[C@H](NC(=O)[C@H](CC(=O)O)NC(=O)[C@H](CO)NC(=O)[C@@H](NC(=O)[C@H](Cc1ccccc1)NC(=O)[C@@H](NC(=O)CNC(=O)[C@H](CCC(N)=O)NC(=O)[C@@H](CO)NC(=O)[C@@H](N)Cc1c[nH]cn1)[C@@H](C)O)[C@@H](C)O)C(=O)N[C@@H](CO)C(=O)N[C@@H](CCCCN)C(=O)N[C@@H](Cc1ccc(O)cc1)C(=O)N[C@@H](CC(C)C)C(=O)N[C@@H](CC(=O)O)C(=O)N[C@@H](CC(N)=O)C(=O)N[C@@H](CCCCN)C(=O)N[C@@H](CCCNC(=N)N)C(=O)N[C@@H](C)C(=O)N[C@@H](CCC(N)=O)C(=O)N[C@@H](CC(=O)O)C(=O)N[C@@H](Cc1ccccc1)C(=O)N[C@H](C(=O)N[C@@H](CCCCN=[N+]=[N-])C(=O)N[C@@H](Cc1c[nH]c2ccccc12)C(=O)N[C@@H](CC(C)C)C(=O)N[C@@H](CC(C)C)C(=O)N[C@@H](CCC(N)=O)C(=O)N[C@H](C(N)=O)[C@@H](C)O)C(C)C)C(=O)O)C(=O)O` [PEP12], at human GCGR, the EC50 was found to be 0.02 nM and the GCGR/GLP1R ratio was determined as 0.3. Also, the EC50 at human GLP1R turned out to be 0.07 nM.

Take `CSCC[C@H](NC(=O)[C@H](CC(C)C)NC(=O)[C@H](Cc1c[nH]c2ccccc12)NC(=O)[C@H](CCCCN=[N+]=[N-])NC(=O)[C@@H](NC(=O)[C@H](Cc1ccccc1)NC(=O)[C@H](CC(=O)O)NC(=O)[C@H](CCC(N)=O)NC(=O)[C@H](C)NC(=O)[C@H](C)NC(=O)[C@H](CCCNC(=N)N)NC(=O)C(C)(C)NC(=O)[C@H](CC(=O)O)NC(=O)[C@H](CC(C)C)NC(=O)[C@H](Cc1ccc(O)cc1)NC(=O)[C@H](CCCCN)NC(=O)[C@H](CO)NC(=O)[C@H](CCCCN)NC(=O)[C@H](CC(=O)O)NC(=O)[C@H](CO)NC(=O)[C@@H](NC(=O)[C@H](Cc1ccccc1)NC(=O)[C@@H](NC(=O)CNC(=O)[C@H](CCC(N)=O)NC(=O)C(C)(C)NC(=O)[C@@H](N)Cc1c[nH]cn1)[C@@H](C)O)[C@@H](C)O)C(C)C)C(=O)N[C@@H](CC(N)=O)C(=O)N[C@H](C(=O)N[C@@H](CCCCN)C(=O)N[C@@H](CCC(N)=O)C(=O)O)[C@@H](C)O` [PEP68] (H-H[Aib]QGTFTSDKSKYLD[Aib]RAAQDFV[Lys(N3)]WLMNTKQ-OH; N-terminus assumed): the EC50 amounted to 2.7 nM on human GCGR (setting [1]) and 0.07 nM at human GLP1R (setting [2]). For the same molecule, the GCGR/GLP1R ratio at human GCGR amounted to 38.6.

As to `CCCCCCCCCCCCCCCC(=O)N[C@@H](CCC(=O)N[C@@H](CCC(=O)NCCCC[C@H](NC(=O)[C@H](CC(=O)O)NC(=O)[C@H](CO)NC(=O)[C@@H](NC(=O)[C@H](Cc1ccccc1)NC(=O)[C@@H](NC(=O)CNC(=O)[C@H](CCC(N)=O)NC(=O)C(C)(C)NC(=O)[C@@H](N)Cc1c[nH]cn1)[C@@H](C)O)[C@@H](C)O)C(=O)N[C@@H](CO)C(=O)N[C@@H](CCCCN)C(=O)N[C@@H](Cc1ccc(O)cc1)C(=O)N[C@@H](CC(C)C)C(=O)N[C@@H](CC(=O)O)C(=O)NC(C)(C)C(=O)N[C@@H](CCCNC(=N)N)C(=O)N[C@@H](C)C(=O)N[C@@H](C)C(=O)N[C@@H](CCC(N)=O)C(=O)N[C@@H](CC(=O)O)C(=O)N[C@@H](Cc1ccccc1)C(=O)N[C@H](C(=O)N[C@@H](CCC(N)=O)C(=O)N[C@@H](Cc1c[nH]c2ccccc12)C(=O)N[C@@H](CC(C)C)C(=O)N[C@@H](CC(C)C)C(=O)N[C@@H](CC(=O)O)C(=O)N[C@H](C(=O)N[C@@H](CCCCN)C(=O)N[C@@H](CCCCN=[N+]=[N-])C(N)=O)[C@@H](C)O)C(C)C)C(=O)O)C(=O)O` [PEP19], the GCGR/GLP1R ratio at human GCGR was determined as 1.4. The molecule further yielded an EC50 on human GLP1R of 0.34 nM.

As for `CC(C)C[C@H](NC(=O)[C@H](Cc1ccc(O)cc1)NC(=O)[C@H](CCCCN)NC(=O)[C@H](CO)NC(=O)[C@H](CCCCN)NC(=O)[C@H](CC(=O)O)NC(=O)[C@H](CO)NC(=O)[C@@H](NC(=O)[C@H](Cc1ccccc1)NC(=O)[C@@H](NC(=O)CNC(=O)[C@H](CCC(N)=O)NC(=O)[C@@H](CO)NC(=O)[C@@H](N)Cc1c[nH]cn1)[C@@H](C)O)[C@@H](C)O)C(=O)N[C@@H](CC(=O)O)C(=O)N[C@@H](CCC(=O)O)C(=O)N[C@@H](CCCNC(=N)N)C(=O)N[C@@H](C)C(=O)N[C@@H](C)C(=O)N[C@@H](CCC(N)=O)C(=O)N[C@@H](CC(=O)O)C(=O)N[C@@H](Cc1ccccc1)C(=O)N[C@H](C(=O)N[C@@H](CCCCN=[N+]=[N-])C(=O)N[C@@H](Cc1c[nH]c2ccccc12)C(=O)N[C@@H](CC(C)C)C(=O)N[C@@H](CC(C)C)C(=O)N[C@@H](CC(=O)O)C(=O)N[C@H](C(N)=O)[C@@H](C)O)C(C)C` [PEP69], the results for the EC50 on human GCGR and on human GLP1R were 0.31 nM and 0.16 nM, respectively. Also, on human GCGR, the GCGR/GLP1R ratio is 1.9.

Take `CCCCCCCCCCCCCCCC(=O)N[C@@H](CCC(=O)N[C@@H](CCC(=O)NCCCC[C@H](NC(=O)[C@H](CC(=O)O)NC(=O)[C@H](CO)NC(=O)[C@@H](NC(=O)[C@H](Cc1ccccc1)NC(=O)[C@@H](NC(=O)CNC(=O)[C@H](CCC(N)=O)NC(=O)[C@@H](CO)NC(=O)[C@@H](N)Cc1c[nH]cn1)[C@@H](C)O)[C@@H](C)O)C(=O)N[C@@H](CO)C(=O)N[C@@H](CCCCN)C(=O)N[C@@H](Cc1ccc(O)cc1)C(=O)N[C@@H](CC(C)C)C(=O)N[C@@H](CC(=O)O)C(=O)N[C@@H](CCC(=O)O)C(=O)N[C@@H](CCCNC(=N)N)C(=O)N[C@@H](C)C(=O)N[C@@H](C)C(=O)N[C@@H](CCC(N)=O)C(=O)N[C@@H](CC(=O)O)C(=O)N[C@@](C)(Cc1ccccc1)C(=O)N[C@H](C(=O)N[C@@H](CCCCN=[N+]=[N-])C(=O)N[C@@H](Cc1c[nH]c2ccccc12)C(=O)N[C@@H](CC(C)C)C(=O)N[C@@H](CCS(C)(=O)=O)C(=O)N[C@@H](CC(=O)O)C(=O)N[C@H](C(N)=O)[C@@H](C)O)C(C)C)C(=O)O)C(=O)O` [PEP35]: the EC50 at human GCGR (setting [1]) and at human GLP1R (setting [2]) was 0.05 nM throughout. The GCGR/GLP1R ratio on human GCGR is recorded as 1.0.

On to `CC(C)C[C@H](NC(=O)[C@H](Cc1ccc(O)cc1)NC(=O)[C@H](CCCCN)NC(=O)[C@H](CO)NC(=O)[C@H](Cc1ccc(O)cc1)NC(=O)[C@H](CC(=O)O)NC(=O)[C@H](CO)NC(=O)[C@@H](NC(=O)[C@H](Cc1ccccc1)NC(=O)[C@@H](NC(=O)CNC(=O)[C@H](CCC(N)=O)NC(=O)C(C)(C)NC(=O)[C@@H](N)Cc1c[nH]cn1)[C@@H](C)O)[C@@H](C)O)C(=O)N[C@@H](CC(=O)O)C(=O)N[C@@H](C)C(=O)N[C@@H](CCCNC(=N)N)C(=O)N[C@@H](C)C(=O)N[C@@H](C)C(=O)N[C@@H](CCCCNC(=O)COCCOCCNC(=O)COCCOCCNC(=O)CC[C@H](NC(=O)CCCCCCCCCCCCCCCCC(=O)O)C(=O)O)C(=O)N[C@@H](CC(=O)O)C(=O)N[C@@H](Cc1ccccc1)C(=O)N[C@H](C(=O)N[C@@H](CCCCN=[N+]=[N-])C(=O)N[C@@H](Cc1c[nH]c2ccccc12)C(=O)N[C@@H](CC(C)C)C(=O)N[C@@H](CCS(C)(=O)=O)C(=O)N[C@@H](CC(=O)O)C(=O)N[C@H](C(N)=O)[C@@H](C)O)C(C)C` [PEP30], for which the GCGR/GLP1R ratio on human GCGR worked out at 4.5. On human GLP1R (setting [2]), the EC50 worked out at 0.5 nM.

For the origin of these results see patent US20190175744A1, “INSULIN-INCRETIN CONJUGATES” (Merck Sharp & Dohme Corp., priority 2016, published 2019).
